Results as given in US10954300B2, “Use of pentoxifylline with immune checkpoint-blockade therapies for the treatment of melanoma” (THE TRUSTEES OF COLUMBIA UNIVERSITY IN THE CITY OF NEW YORK, priority 2015, dated 2021).

Experiments:
c-Rel [1] = molecular target: T1, c-Rel (Mus musculus, UniProt P15307); assay: Western blot on PTXF-treated Treg cells; type: cell-based, mice; conditions: Treg cells stimulated with anti-CD3/CD28 and mIL-2, 500 μg/mL PTXF
T1 construct: CD4+GFP+ Treg cells were sorted form Foxp3eGFP spleens; endogenous in cells; host or cells: primary splenic CD4+Foxp3+ Treg cells from reporter mice
Procedure: Total cells suspensions were then activated with 5 μg/mL plate-coated anti-mCD3, 1 μg/ml soluble anti-mCD28 (BioLegend) and 10 ng/mL mIL-2, overnight at 37 C. Treg cells were then washed for further use.
Total lysates were extracted using RIPA buffer and protease inhibitors with SDS. 20 μg (micrograms) protein extracts were ran in polyacrylamide gels and transferred onto PVDF membranes. Membranes were incubated with anti-p65, c-Rel (Santa-Cruz) and GAPDH (Fitzgerald) Abs, followed HRP-coupled secondary Abs.

p65 = conditions: cited from earlier work
Treg cells [2] = assay: In vitro suppression assay with PTXF-treated Treg cells; type: cell-based, mice; conditions: vs mock-treated Treg cells
Treg cells [3] = assay: Flow cytometry of PTXF-treated Treg cells; type: cell-based, mice; conditions: 16 h stimulation, 500 μg/mL PTXF
Procedure: Cells were isolated from thymus, spleen and lymph nodes by mechanical desegregation in PBS+ FBS 3%. For tumor-infiltrating cell suspensions, total tumors were digested in DMEM (Gibco) supplemented with 1 mg/ml collagenase type IV (Sigma) and 1 mg/ml DNase I (Sigma) for 40 minutes at 37° C., followed by centrifugation in a 36% Percoll solution. For intracellular cytokines analyses, cell suspensions were incubated 3 hours with PMA (Sigma, 50 ng/mL), ionoymycin (Sigma, 1 μg/mL) in the presence of Golgi Plug (BD), or incubated 4 hours with mitomycin C-treated WT splenocytes loaded with […] gp100/pmel 17 peptide (Neo Biolab) in the presence of Golgi Plug. Cells were then stained with mAbs purchased by eBioscience or Tonbo Bioscience. Foxp3 and cytokine staining were performed using the eBioscience kit and protocol. Cells were acquired on a LSR II (BD Biosciences) and analyzed with FlowJo (Tree Star) software. […] Total cells suspensions were then activated with 5 μg/mL plate-coated anti-mCD3, 1 μg/ml soluble anti-mCD28 (BioLegend) and 10 ng/mL mIL-2, overnight at 37 C. Treg cells were then washed for further use.

B16F10 cells = assay: B16F10 metastatic melanoma, lung foci; type: in vivo, C57Bl/6J mice; conditions: B16F10 i.v.; early PTXF treatment
Procedure: 5×10^4 B16F1 or 5×10^5 CT-26 or BRAF^[…]^-/- cells diluted in sterile PBS1X were injected subcutaneously into the shaved flank of each mouse. For metastasis experiments, 2.5×10^4 B16F10 cells were injected intravenously in the tail vein. […] Anti-PD-1 (RMP1-14), anti-PD-L1 (10F.9G2) and anti-CD8 (YTS.169-4) mAbs were obtained from BioXCell. Rat IgG isotype control was from R&D Systems.

c-Rel [4] = molecular target: T2, c-Rel (Homo sapiens, UniProt Q04864); conditions: cited from earlier work
T2 construct: host or cells: T cells
T2 sequence (Q04864 1-619): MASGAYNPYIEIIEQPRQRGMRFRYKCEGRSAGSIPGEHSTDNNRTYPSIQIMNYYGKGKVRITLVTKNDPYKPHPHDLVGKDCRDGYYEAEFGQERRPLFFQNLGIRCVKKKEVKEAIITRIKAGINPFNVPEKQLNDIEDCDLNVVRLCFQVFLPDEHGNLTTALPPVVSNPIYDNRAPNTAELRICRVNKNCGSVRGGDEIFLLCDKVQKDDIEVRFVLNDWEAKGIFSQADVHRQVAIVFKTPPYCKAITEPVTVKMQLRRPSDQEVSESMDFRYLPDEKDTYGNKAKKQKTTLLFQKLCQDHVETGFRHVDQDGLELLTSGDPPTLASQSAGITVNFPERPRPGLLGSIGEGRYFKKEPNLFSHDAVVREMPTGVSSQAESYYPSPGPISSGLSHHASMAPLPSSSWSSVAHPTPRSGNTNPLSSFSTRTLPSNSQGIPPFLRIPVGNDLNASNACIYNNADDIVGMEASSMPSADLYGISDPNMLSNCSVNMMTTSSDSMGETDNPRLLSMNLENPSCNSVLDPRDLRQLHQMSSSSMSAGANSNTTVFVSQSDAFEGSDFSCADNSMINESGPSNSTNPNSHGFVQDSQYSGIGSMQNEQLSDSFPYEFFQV

B16F1 melanoma cells = assay: Flow cytometry of tumor infiltrates (TILs) at D16, early PTXF treatment; type: in vivo, C57Bl/6J mice
Procedure: Cells were isolated from thymus, spleen and lymph nodes by mechanical desegregation in PBS+ FBS 3%. For tumor-infiltrating cell suspensions, total tumors were digested in DMEM (Gibco) supplemented with 1 mg/ml collagenase type IV (Sigma) and 1 mg/ml DNase I (Sigma) for 40 minutes at 37° C., followed by centrifugation in a 36% Percoll solution. For intracellular cytokines analyses, cell suspensions were incubated 3 hours with PMA (Sigma, 50 ng/mL), ionoymycin (Sigma, 1 μg/mL) in the presence of Golgi Plug (BD), or incubated 4 hours with mitomycin C-treated WT splenocytes loaded with 10 mg/mL gp100/pmel 17 peptide (Neo Biolab) in the presence of Golgi Plug. Cells were then stained with mAbs purchased by eBioscience or Tonbo Bioscience. Foxp3 and cytokine staining were performed using the eBioscience kit and protocol. Cells were acquired on a LSR II (BD Biosciences) and analyzed with FlowJo (Tree Star) software.

T1 sequence (P15307 whole entry): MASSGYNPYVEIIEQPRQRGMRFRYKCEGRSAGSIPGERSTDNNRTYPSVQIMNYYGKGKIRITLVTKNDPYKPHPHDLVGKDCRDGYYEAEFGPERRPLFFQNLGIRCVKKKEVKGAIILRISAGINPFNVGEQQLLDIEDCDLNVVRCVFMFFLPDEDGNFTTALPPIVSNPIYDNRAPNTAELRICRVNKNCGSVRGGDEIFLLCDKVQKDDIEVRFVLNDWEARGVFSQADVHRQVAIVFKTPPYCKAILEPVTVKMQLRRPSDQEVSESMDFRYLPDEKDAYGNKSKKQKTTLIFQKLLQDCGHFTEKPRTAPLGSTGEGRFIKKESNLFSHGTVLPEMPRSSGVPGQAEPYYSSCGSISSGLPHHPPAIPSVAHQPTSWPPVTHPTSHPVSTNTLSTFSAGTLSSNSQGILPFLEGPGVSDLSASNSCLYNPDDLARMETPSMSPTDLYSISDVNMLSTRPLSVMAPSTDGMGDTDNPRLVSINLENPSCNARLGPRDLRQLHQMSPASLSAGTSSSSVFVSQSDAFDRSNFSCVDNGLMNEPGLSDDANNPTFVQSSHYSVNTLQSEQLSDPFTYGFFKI

c-Rel protein (c-Rel [1]): significant reduction of c-Rel protein
Compound: CC(=O)CCCCn1c(=O)c2c(ncn2C)n(C)c1=O [PTXF, 1-(5-oxohexyl)-3,7-dimethylxanthine]
levels of p65 in T cells in vitro (p65): unchanged
suppression of effector T-cell proliferation by PTXF-treated Treg cells (Treg cells [2]): modest, but significant, reduction
expression of Treg markers such as Foxp3, CD25 and Helios (Treg cells [3]): significantly decreased expression
total number of metastatic foci in lungs (B16F10 cells): significantly decreased
levels of c-Rel activation in T cells in vitro (c-Rel [4]): reduces the levels of c-Rel activation
CD44 and Ki67 expression on CD4+ Tconv TILs (B16F1 melanoma cells): increased
infiltration of total T cells and IFN-γ-producing CD4 and CD8 T-cells into the tumors (B16F1 melanoma cells): increase in infiltration
proportion of Treg cells in tumor infiltrates (B16F1 melanoma cells): decrease in the proportion of Treg cells
